How the values were obtained:
[1] = target: T1, rat NR1/NR2B receptor (Rattus norvegicus (Rat), UniProt P35439+Q00960); experiment: NR2B binding assay: inhibition of specific [3H]-Ifenprodil binding to the rat NR1/NR2B receptor; details: for inhibition at 1 µM: 1 μM test compound, read-out: NR2B binding assay % INH @ 1 μM; for inhibition at 10 µM: 10 μM test compound, read-out: NR2B binding assay % INH @ 10 μM; for IC50: rat brain membranes, [3H]-Ifenprodil, Hill-plot 2-parameter model
Protocol: Inhibition of Specific Binding to the Rat NR1/NR2B Receptor
Male Wistar rats (180 to 200 g) were killed by suffocation in a CO2 chamber for two minutes. Whole brains without cerebellum were removed and dissected on ice, placed into closed vials and stored at −70° C.
Membrane fractions were prepared and tested using standard techniques. At the time of the assay, 1 g of the brains was placed into 25 ml of 50 mM Tris/10 mM EDTA buffer, pH 7.1, (25 vol. per g of original tissue) and homogenized for 30 sec at 20000 rpm with an Ultraturrax T25 (Jahnke & Kunkel, IKA-Labortechnik, Staufen, Germany). The homogenate was centrifuged at 4° C. for 10 min at 48000 g (OPTIMA L-70, Beckman, Palo Alto, Calif. 94304, USA).
The supernatant was discarded and the pellet was homogenized on ice for 30 sec at 20000 rpm with an Ultraturrax and again centrifuged at 48000 g for 30 minutes at 4° C. The resulted pellet was resuspended in 25 ml of 50 mM Tris/10 mM EDTA buffer, homogenized for 30 sec with an Ultraturrax, aliquoted, frozen at −70° C. and stored until use.
After thawing on the day of the assay, a 5 ml membrane aliquot was centrifuged at 48000 g for 30 min at 4° C. The pellet was resuspended in 5 ml of 5 mM Tris/1 mM EDTA buffer, pH 7.4, homogenized for 30 sec at 20000 rpm with an Ultraturrax and centrifuged at 48000 g for 30 min at 4° C. This was repeated twice. The final pellet was homogenized in 5 ml of 5 mM Tris/1 mM EDTA buffer at 4° C. with an Ultraturrax and used for the Ifenprodil-binding assay as described in the following.
Nonspecific binding was estimated in the presence of […] CP101.606. The samples were incubated for 60 min. at 4° C.
The incubation was terminated by filtration of the membrane preparations using Filtermat B (Pharmacia, Uppsala Sweden) and a Micro Cell Harvester (Skatron, Lier, Norway). The Filtermat B had been presoaked with 1% polyethylene imine and carefully washed with 50 mM Tris/HCl-buffer pH 7.7 after the filtration to separate free and bound radioactivity.
The optimal amount of membrane preparation in the assay had been determined and optimized for each membrane preparation separately before the test.
For pipetting of the incubation mixture we routinely used the robot Biomek2000 (Fa. Beckman).
For determination of IC50 values the Hill-plot, 2-parameter-model was used.

[2] = target: T1, rat NR1/NR2B receptor; experiment: RRNR2BB: inhibition of specific [3H]-Ifenprodil binding to the rat NR1/NR2B receptor; details: rat brain membranes, Hill-plot 2-parameter model
[3] = target: hERG receptor (Homo sapiens (Human), UniProt Q12809); experiment: HERGBD: inhibition of specific [3H]-Dofetilide binding to the hERG receptor; details: HEK hERG membranes, Hill-plot 2-parameter model
Sequence of hERG receptor (Q12809 whole entry): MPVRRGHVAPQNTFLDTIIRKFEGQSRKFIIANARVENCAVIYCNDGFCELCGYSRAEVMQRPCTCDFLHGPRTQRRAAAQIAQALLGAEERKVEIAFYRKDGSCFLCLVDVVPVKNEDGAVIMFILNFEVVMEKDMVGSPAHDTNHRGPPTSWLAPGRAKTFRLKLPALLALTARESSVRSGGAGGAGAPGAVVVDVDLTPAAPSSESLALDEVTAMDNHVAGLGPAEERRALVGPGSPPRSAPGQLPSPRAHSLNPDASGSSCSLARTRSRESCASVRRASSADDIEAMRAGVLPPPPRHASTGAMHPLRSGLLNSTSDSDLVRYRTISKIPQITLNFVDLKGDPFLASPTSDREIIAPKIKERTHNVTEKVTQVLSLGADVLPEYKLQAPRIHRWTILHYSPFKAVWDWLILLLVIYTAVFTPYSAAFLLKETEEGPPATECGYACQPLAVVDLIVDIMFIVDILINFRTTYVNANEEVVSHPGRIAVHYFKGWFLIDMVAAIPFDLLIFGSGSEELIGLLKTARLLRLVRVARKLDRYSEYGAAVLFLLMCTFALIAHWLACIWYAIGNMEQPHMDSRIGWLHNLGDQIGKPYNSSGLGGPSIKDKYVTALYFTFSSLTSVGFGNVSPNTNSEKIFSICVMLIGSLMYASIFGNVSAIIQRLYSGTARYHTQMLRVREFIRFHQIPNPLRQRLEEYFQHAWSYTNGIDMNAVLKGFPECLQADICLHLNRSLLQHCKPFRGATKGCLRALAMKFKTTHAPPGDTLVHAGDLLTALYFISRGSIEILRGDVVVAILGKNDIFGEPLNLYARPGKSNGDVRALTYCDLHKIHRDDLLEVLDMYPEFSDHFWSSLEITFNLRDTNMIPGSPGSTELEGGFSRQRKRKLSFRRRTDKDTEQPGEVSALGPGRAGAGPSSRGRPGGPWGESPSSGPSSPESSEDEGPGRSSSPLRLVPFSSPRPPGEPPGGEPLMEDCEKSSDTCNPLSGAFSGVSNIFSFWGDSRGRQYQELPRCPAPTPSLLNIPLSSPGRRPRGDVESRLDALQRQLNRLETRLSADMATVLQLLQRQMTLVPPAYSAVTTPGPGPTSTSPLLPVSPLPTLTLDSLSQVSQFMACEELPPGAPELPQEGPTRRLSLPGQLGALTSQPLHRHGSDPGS

T1 sequence (Q00960 27-1482, other chains not shown): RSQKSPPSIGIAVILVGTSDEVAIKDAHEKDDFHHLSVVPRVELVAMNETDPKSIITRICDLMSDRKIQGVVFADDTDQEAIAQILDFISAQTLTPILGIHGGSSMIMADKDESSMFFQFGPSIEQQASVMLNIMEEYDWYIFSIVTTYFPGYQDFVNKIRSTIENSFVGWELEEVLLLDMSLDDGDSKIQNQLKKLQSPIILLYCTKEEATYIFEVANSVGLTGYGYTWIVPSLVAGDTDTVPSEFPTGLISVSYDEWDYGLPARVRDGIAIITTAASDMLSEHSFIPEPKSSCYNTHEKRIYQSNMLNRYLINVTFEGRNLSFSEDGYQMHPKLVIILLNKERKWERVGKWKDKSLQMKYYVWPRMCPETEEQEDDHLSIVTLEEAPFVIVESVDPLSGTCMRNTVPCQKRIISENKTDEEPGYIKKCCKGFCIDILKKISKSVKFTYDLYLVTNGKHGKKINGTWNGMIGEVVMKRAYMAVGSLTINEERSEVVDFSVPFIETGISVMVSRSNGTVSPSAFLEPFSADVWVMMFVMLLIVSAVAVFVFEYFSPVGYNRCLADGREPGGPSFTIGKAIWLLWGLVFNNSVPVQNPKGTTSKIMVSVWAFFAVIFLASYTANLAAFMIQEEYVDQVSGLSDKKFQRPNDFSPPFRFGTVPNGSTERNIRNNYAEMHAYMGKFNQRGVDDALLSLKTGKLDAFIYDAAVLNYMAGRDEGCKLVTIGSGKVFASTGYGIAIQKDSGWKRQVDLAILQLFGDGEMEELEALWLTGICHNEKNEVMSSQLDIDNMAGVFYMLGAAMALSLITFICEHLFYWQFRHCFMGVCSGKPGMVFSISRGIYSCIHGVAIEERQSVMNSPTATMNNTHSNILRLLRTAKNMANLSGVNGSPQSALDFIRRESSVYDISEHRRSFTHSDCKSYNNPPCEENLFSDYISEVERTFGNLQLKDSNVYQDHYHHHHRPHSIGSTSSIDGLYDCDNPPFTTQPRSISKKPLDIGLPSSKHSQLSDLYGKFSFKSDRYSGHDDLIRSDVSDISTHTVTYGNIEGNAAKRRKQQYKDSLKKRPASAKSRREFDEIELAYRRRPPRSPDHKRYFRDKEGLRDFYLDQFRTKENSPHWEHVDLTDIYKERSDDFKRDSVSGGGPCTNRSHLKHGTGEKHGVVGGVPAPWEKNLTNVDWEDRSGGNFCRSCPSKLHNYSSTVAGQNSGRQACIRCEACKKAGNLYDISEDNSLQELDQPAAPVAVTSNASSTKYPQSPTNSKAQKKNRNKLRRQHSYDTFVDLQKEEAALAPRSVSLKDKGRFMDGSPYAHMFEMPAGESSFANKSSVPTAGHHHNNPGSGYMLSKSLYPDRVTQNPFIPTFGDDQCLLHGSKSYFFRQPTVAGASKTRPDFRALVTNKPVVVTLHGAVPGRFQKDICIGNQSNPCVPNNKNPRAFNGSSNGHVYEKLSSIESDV

Row | Compound | inhibition at 1 µM [1] | inhibition at 10 µM [1] | IC50 [2] | IC50 [1] | IC50 [3]
1 | Cc1nc(C)n(Cc2cn(-c3ccc(Cl)cc3)nn2)n1 [Example 1, 1-(4-Chloro-phenyl)-4-(3,5-dimethyl-[1,2,4]triazol-1-ylmethyl)-1H-[1,2,3]triazole] | 12.4% | 31.5% |  |  | 
2 | CCCc1ncnn1Cc1cn(-c2ccc(Cl)cc2)nn1 [Example 2, 1-(4-Chloro-phenyl)-4-(5-propyl-[1,2,4]triazol-1-ylmethyl)-1H-[1,2,3]triazole] | 23.9% | 43% |  |  | 
3 | CCCc1ncn(Cc2cn(-c3ccc(Cl)cc3)nn2)n1 [Example 3, 1-(4-Chloro-phenyl)-4-(3-propyl-[1,2,4]triazol-1-ylmethyl)-1H-[1,2,3]triazole] | 18.3% | 4.5% |  |  | 
4 | CC(C)c1ncn(Cc2cn(-c3ccc(Cl)cc3)nn2)n1 [Example 4, 1-(4-Chloro-phenyl)-4-(3-isopropyl-[1,2,4]triazol-1-ylmethyl)-1H-[1,2,3]triazole] | 21.6% | 2% |  |  | 
5 | CCc1ncnn1Cc1cn(-c2ccc(Cl)cc2)nn1 [Example 5, 1-(4-Chloro-phenyl)-4-(5-ethyl-[1,2,4]triazol-1-ylmethyl)-1H-[1,2,3]triazole] | 1.2% | 30.1% |  |  | 
6 | CCc1ncn(Cc2cn(-c3ccc(Cl)cc3)nn2)n1 [Example 6, 1-(4-Chloro-phenyl)-4-(3-ethyl-[1,2,4]triazol-1-ylmethyl)-1H-[1,2,3]triazole] | 11.8% | 21.6% |  |  | 
7 | CC(C)c1ncnn1Cc1cn(-c2ccc(Cl)cc2)nn1 [Example 7, 1-(4-Chloro-phenyl)-4-(5-isopropyl-[1,2,4]triazol-1-ylmethyl)-1H-[1,2,3]triazole] | 2.3% | 40.9% |  |  | 
8 | Cc1ncnn1Cc1cn(-c2ccc(Cl)cc2)nn1 [Example 8, 1-(4-Chloro-phenyl)-4-(5-methyl-[1,2,4]triazol-1-ylmethyl)-1H-[1,2,3]triazole] | 8.3% | 38.7% |  |  | 
9 | Cc1ncn(Cc2cn(-c3ccc(Cl)cc3)nn2)n1 [Example 9, 1-(4-Chloro-phenyl)-4-(3-methyl-[1,2,4]triazol-1-ylmethyl)-1H-[1,2,3]triazole] | 6.6% | 17.9% |  |  | 
10 | Clc1ccc(-n2cc(Cn3nc(C4CC4)nc3C3CC3)nn2)cc1 [Example 10, 1-(4-Chlorophenyl)-4-(3,5-dicyclopropyl-[1,2,4]triazol-1-ylmethyl)-1-[1,2,3]triazole] | -6% | 3.5% |  |  | 
11 | Clc1ccc(-n2cc(Cn3ncnc3C3CCC3)nn2)cc1 [Example 11, 1-(4-Chloro-phenyl)-4-(5-cyclobutyl-[1,2,4]triazol-1-ylmethyl)-1H-[1,2,3]triazole] | 8.7% | 41.5% |  |  | 
12 | Clc1ccc(-n2cc(Cn3cnc(C4CCC4)n3)nn2)cc1 [Example 12, 1-(4-Chloro-phenyl)-4-(3-cyclobutyl-[1,2,4]triazol-1-ylmethyl)-1H-[1,2,3]triazole] | -0.66% | 11% |  |  | 
13 | Clc1ccc(-n2cc(Cn3cnc(C4CC4)n3)nn2)cc1 [Example 13, 1-(4-Chloro-phenyl)-4-(3-cyclopropyl-[1,2,4]triazol-1-ylmethyl)-1H-[1,2,3]triazole] | 7.5% | 16.2% |  |  | 
14 | Clc1ccc(-n2cc(Cn3ncnc3C3CCCC3)nn2)cc1 [Example 14, 1-(4-Chloro-phenyl)-4-(5-cyclopentyl-[1,2,4]triazol-1-ylmethyl)-1H-[1,2,3]triazole] |  | 49.6% |  |  | 
15 | Clc1ccc(-n2cc(Cn3cnc(C4CCCC4)n3)nn2)cc1 [Example 15] | 6.4% | 22.2% |  |  | 
16 | Clc1ccc(-n2cc(Cn3ncnc3C3CC3)nn2)cc1 [Example 16, 1-(4-Chloro-phenyl)-4-(5-cyclopropyl-[1,2,4]triazol-1-ylmethyl)-1H-[1,2,3]triazole] | 3.6% | 32.6% |  |  | 
17 | FC(F)(F)c1ncn(Cc2cn(-c3ccc(Cl)cc3)nn2)n1 [Example 17, 1-(4-Chloro-phenyl)-4-(3-trifluoromethyl-[1,2,4]triazol-1-ylmethyl)-1H-[1,2,3]triazole] | 19.9% | 12.5% |  |  | 
18 | Cc1nccn1Cc1cn(-c2ccc(F)c(C(C)(F)F)c2)nn1 [Example 105, 1-[3-(1,1-Difluoro-ethyl)-4-fluoro-phenyl]-4-(2-methyl-imidazol-1-ylmethyl)-1H-[1,2,3]triazole] |  |  |  |  | 23.1 µM

Now from value to compound, other results behind:

Row | inhibition at 1 µM [1] | inhibition at 10 µM [1] | IC50 [2] | IC50 [1] | Compound | IC50 [3]
19 | 8.2% | 14.5% |  |  | CC(C)(C)c1ncnn1Cc1cn(-c2ccc(Cl)cc2)nn1 [Example 19, 4-(5-tert-Butyl-[1,2,4]triazol-1-ylmethyl)-1-(4-chloro-phenyl)-1H-[1,2,3]triazole] | 
20 | 27% | 15.3% |  |  | CC(C)(C)c1ncn(Cc2cn(-c3ccc(Cl)cc3)nn2)n1 [Example 20, 4-(3-tert-Butyl-[1,2,4]triazol-1-ylmethyl)-1-(4-chloro-phenyl)-1H-[1,2,3]triazole] | 
21 | -1.6% | 6.8% |  |  | Cc1nc(C2CCC2)n(Cc2cn(-c3ccc(Cl)cc3)nn2)n1 [Example 21, 1-(4-Chloro-phenyl)-4-(5-cyclobutyl-3-methyl-[1,2,4]triazol-1-ylmethyl)-1H-[1,2,3]triazole] | 
22 | 14.5% | -2.2% |  |  | Cc1nc(C2CCC2)nn1Cc1cn(-c2ccc(Cl)cc2)nn1 [Example 22, 1-(4-Chloro-phenyl)-4-(3-cyclobutyl-5-methyl-[1,2,4]triazol-1-ylmethyl)-1H-[1,2,3]triazole] | 
23 | 28.7% | 51.4% |  |  | Clc1ccc(-n2cc(Cn3ccnc3Cl)nn2)cc1 [Example 26, 4-(2-Chloro-imidazol-1-ylmethyl)-1-(4-chloro-phenyl)-1H-[1,2,3]triazole] | 
24 | 12.7% | 53.2% |  |  | CC(C)(C)c1nccn1Cc1cn(-c2ccc(Cl)cc2)nn1 [Example 30, 4-(2-tert-Butyl-imidazol-1-ylmethyl)-1-(4-chloro-phenyl)-1H-[1,2,3]triazole] | 
25 | 3.7% | 2.2% |  |  | Cc1nncn1Cc1cn(-c2ccc(Cl)cc2)nn1 [Example 31, 1-(4-Chloro-phenyl)-4-(3-methyl-[1,2,4]triazol-4-ylmethyl)-1H-[1,2,3]triazole] | 
26 | 9.3% | 7.4% |  |  | Cc1nc(C)n(Cc2cn(-c3ccccc3)nn2)n1 [Example 46, 4-(3,5-Dimethyl-[1,2,4]triazol-1-ylmethyl)-1-phenyl-1H-[1,2,3]triazole] | 
27 | 33.8% | -8.4% |  |  | Cc1nc(CO)n(Cc2cn(-c3ccccc3)nn2)n1 [Example 47, 4-(5-Hydroxymethyl-3-methyl-[1,2,4]triazol-1-ylmethyl)-1-phenyl-1H-[1,2,3]triazole] | 
28 | 29.6% | -17.1% |  |  | Cc1nc(CO)nn1Cc1cn(-c2ccccc2)nn1 [Example 48, 4-(3-Hydroxymethyl-5-methyl-[1,2,4]triazol-1-ylmethyl)-1-phenyl-1H-[1,2,3]triazole] | 
29 |  |  | 186 nM | 186 nM | FCCc1nccn1Cc1cn(-c2cc(F)cc(C(F)F)c2)nn1 [Example 104, 1-(3-Difluoromethyl-5-fluoro-phenyl)-4-[2-(2-fluoro-ethyl)-imidazol-1-ylmethyl]-1H-[1,2,3]triazole] | 30.6 µM
30 | -4.9% |  |  |  | Cc1ccc(C(=O)c2nccn2Cc2cn(-c3ccc(Cl)cc3)nn2)cc1 [Example 116, [1-[[1-(4-chlorophenyl)triazol-4-yl]methyl]imidazol-2-yl]-(p-tolyl)methanone] | 
31 |  |  | 263 nM | 263 nM | OCCc1nccn1Cc1cn(-c2ccc(S(F)(F)(F)(F)F)cc2)nn1 [Example 118, 2-(1-((1-(4-(pentafluoro-l6-sulfanyl)phenyl)-1H-1,2,3-triazol-4-yl)methyl)-1H-imidazol-2-yl)ethan-1-ol] | 
